The record followed here is patent US20250214993A1, “AROMATIC RING COMPOUND AND USE THEREOF” (SHANGHAI SHIJIANG BIOTECHNOLOGY CO., LTD, priority 2022, published 2025).

What all share (assay type): cell-based
The test system of one assay is Con-NCI-H82 cell. The assay is described as follows: Cell viability (Promega CellTiter-Glo, intracellular ATP), IC50 on Con-NCI-H82 cell. The note with it: Homo sapiens; normal untreated NCI-H82 cell (control). The method in brief: (§1)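 Con-NCI-H82 cells and NCI-H82 cells overexpressing NNMT via a viral vector were grown in RPMI1640 with 10% FBS. Viability was read as intracellular ATP by CellTiter-Glo luminescence, giving IC50.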
(In general: In ATP-based viability assays light output follows the ATP content of the culture.)

The next assay concerns ov-NNMT NCI-H82 cell. Briefly: Cell viability (Promega CellTiter-Glo, intracellular ATP), IC50 on NNMT-overexpressing NCI-H82 cell. The note with it: Homo sapiens; NCI-H82 cell overexpressing NNMT protein. The method in brief:
as §1

The test system of a further assay is mPTP-inactive Daoy cell. Briefly: Cell viability (Promega CellTiter-Glo), IC50 on mPTP-inactive Daoy cell (PPIF shRNA). The following applies: Homo sapiens; Daoy cell transfected with PPIF shRNA vector.
Another assay has as its system mPTP-active Daoy cell. The assay is described as follows: Cell viability (Promega CellTiter-Glo), IC50 on mPTP-active Daoy cell. The note with it: Homo sapiens; Daoy cell transfected with empty virus vector.

By IC50 is commonly meant the midpoint of a concentration-inhibition curve. `Cc1c(C)n(CC(=O)c2cccc(OC(F)(F)F)c2)c2cc[n+](Cc3ccccc3)cc12` [AB27492]: the IC50 in the assay with Con-NCI-H82 cell stood at 174 nM; in the assay with ov-NNMT NCI-H82 cell it was 1490 nM; in the assay on mPTP-inactive Daoy cell, 1210 nM; in the assay on mPTP-active Daoy cell it was 3.75 µM.
For the compound `CCc1cn(Cc2ccccc2)c2cc[n+](C3CCc4ccc(Cl)cc4C3=O)cc12` (stereo not shown) [AB27171], the IC50 in the assay with Con-NCI-H82 cell stood at 63 nM; with ov-NNMT NCI-H82 cell, 1050 nM; in the assay with mPTP-inactive Daoy cell, 690 nM; in the assay with mPTP-active Daoy cell, 1.94 µM.
The corresponding values for `Cc1ccc(C(=O)Cn2ccc3c[n+](C(C)c4ccccc4)ccc32)cc1` (stereo not shown) [AB27261] are 23 nM, 381 nM, 180 nM and 0.38 µM.
The corresponding values for `O=C1c2cc(Cl)ccc2CCC1[n+]1ccc2cn(Cc3ccccc3)cc2c1` (stereo not shown) [AB27197] are 174 nM, 1700 nM, 1020 nM and 3.57 µM.
In the case of `O=C1c2cc(Cl)ccc2CCC1[n+]1cnc2c(ccn2Cc2ccccc2)c1` (stereo not shown) [AB27140], the IC50 with Con-NCI-H82 cell came to 182 nM; with ov-NNMT NCI-H82 cell, 1580 nM; in the assay with mPTP-inactive Daoy cell it was 1480 nM; in the assay with mPTP-active Daoy cell, 3.66 µM.
The corresponding values for `O=C(Cn1c(Cl)cc2c[n+](Cc3ccccc3)ccc21)c1cccc(C(F)(F)F)c1` [AB27487] are 31 nM, 496 nM, 220 nM and 0.57 µM.
Consider `Cc1cc2c[n+](Cc3ccccc3)ccc2n1CC(=O)c1cccc(C(F)(F)F)c1` [AB27456], for which the IC50 is 22 nM in the assay on Con-NCI-H82 cell, 383 nM in the assay with ov-NNMT NCI-H82 cell, 130 nM in the assay on mPTP-inactive Daoy cell and 0.38 µM with mPTP-active Daoy cell.
The corresponding values for `O=C1c2cc(Cl)ccc2CCC1n1cnc2c[n+](Cc3ccccc3)ccc21` (stereo not shown) [AB31704] are 264 nM, 3180 nM, 770 nM and 3.69 µM.
Consider `O=C1c2ccc(OC(F)(F)F)cc2CCC1[n+]1ccc2c(ccn2Cc2ccccc2)c1` (stereo not shown) [AB24997], for which the concentration for half-maximal inhibition (IC50) worked out at 498 nM in the assay on Con-NCI-H82 cell, 3120 nM with ov-NNMT NCI-H82 cell, 2340 nM in the assay with mPTP-inactive Daoy cell and 8.56 µM in the assay on mPTP-active Daoy cell.
The corresponding values for `CN1c2nc[n+](C3CCc4ccc(Cl)cc4C3=O)cc2CCC1c1ccccc1` (stereo not shown) [AB27198] are 700 nM, 3550 nM, 1890 nM and 7.55 µM.
The corresponding values for `Cc1c[n+](Cc2ccccc2)cc2ccn(CC(=O)c3cccc(Cl)c3)c12` [AB27257] are 75 nM, 968 nM, 880 nM and 2.16 µM.
The corresponding values for `Cc1ccc(C(=O)C[n+]2ccc(NCc3ccccc3)cc2C)c(F)c1` [AB27325] are 22 nM, 268 nM, 380 nM and 2.01 µM.
As to `O=C1c2cc(Cl)ccc2CCC1[n+]1ccc2c(c1)c(Cl)cn2Cc1ccccc1` (stereo not shown) [AB27172], the IC50 in the assay with Con-NCI-H82 cell is 203 nM; with ov-NNMT NCI-H82 cell, 2040 nM; in the assay with mPTP-inactive Daoy cell, 1380 nM; in the assay on mPTP-active Daoy cell, 3.94 µM.
The corresponding values for `Cc1ccc(C(=O)CNc2cc[n+](Cc3ccccc3)cc2)cc1` [AB27283] are 874 nM, 3380 nM, 3240 nM and 10.6 µM.
The corresponding values for `O=C(Cn1ncc2c[n+](Cc3ccccc3)ccc21)c1cccc(OC(F)(F)F)c1` [AB27498] are 2180 nM, 11000 nM, 1960 nM and 9.89 µM.
In the case of `Cc1ccc(C(=O)Cn2c(C)cc3c[n+](Cc4ccccc4)ccc32)cc1` [AB27277], the IC50 with Con-NCI-H82 cell was found to be 15 nM; with ov-NNMT NCI-H82 cell it was 245 nM; with mPTP-inactive Daoy cell, 30 nM; with mPTP-active Daoy cell it was 0.16 µM.
The corresponding values for `Cc1ccc2c(c1)C(=O)C(n1ccc3c[n+](Cc4ccccc4)ccc31)CC2` (stereo not shown) [AB27192] are 12 nM, 214 nM, 30 nM and 0.19 µM.
The corresponding values for `O=C1c2cc(Cl)ccc2CCC1[n+]1ccc(NCc2ccccc2)nc1` (stereo not shown) [AB27138] are 1100 nM, 9820 nM, 3620 nM and 8.82 µM.
Consider `O=C1c2cc(F)ccc2CCC1[n+]1ccc2c(ccn2Cc2ccccc2)c1` (stereo not shown) [AB27356], for which the IC50 is 130 nM with Con-NCI-H82 cell, 1740 nM in the assay on ov-NNMT NCI-H82 cell, 940 nM with mPTP-inactive Daoy cell and 5.54 µM in the assay with mPTP-active Daoy cell.
The corresponding values for `O=C1c2cc(OC(F)(F)F)ccc2CCC1n1ccc2c[n+](Cc3ccccc3)ccc21` (stereo not shown) [AB27191] are 10 nM, 184 nM, 40 nM and 0.25 µM.
The corresponding values for `Cc1ccc(C(=O)C[n+]2ccc3c(c2)CCN3Cc2ccccc2)cc1` [AB24995] are 920 nM, 4150 nM, 1980 nM and 6.32 µM.
For the compound `O=C1c2cc(F)ccc2CCC1n1ncc2c[n+](Cc3ccccc3)ccc21` (stereo not shown) [AB31773], the half-maximal inhibitory concentration (IC50) stood at 110 nM in the assay with Con-NCI-H82 cell, 1810 nM in the assay on ov-NNMT NCI-H82 cell, 490 nM with mPTP-inactive Daoy cell and 2.98 µM in the assay on mPTP-active Daoy cell.
In the case of `CC(=O)N(Cc1ccccc1)c1cc[n+](C2CCc3ccc(Cl)cc3C2=O)cc1` (stereo not shown) [AB27230], the IC50 in the assay with Con-NCI-H82 cell was determined as 126 nM; with ov-NNMT NCI-H82 cell, 1260 nM; in the assay on mPTP-inactive Daoy cell it was 920 nM; in the assay on mPTP-active Daoy cell it was 2.92 µM.
On to `O=C1c2cc(C(F)(F)F)ccc2CCC1n1ncc2c[n+](Cc3ccccc3)ccc21` (stereo not shown) [AB31774], for which the IC50 in the assay with Con-NCI-H82 cell was 970 nM; in the assay with ov-NNMT NCI-H82 cell, 7920 nM; with mPTP-inactive Daoy cell, 1530 nM; in the assay with mPTP-active Daoy cell, 9.92 µM.
The corresponding values for `O=C1c2sccc2CCC1n1ccc2c[n+](Cc3ccccc3)ccc21` (stereo not shown) [AB27345] are 76 nM, 904 nM, 2040 nM and 6.69 µM.
The corresponding values for `O=C1c2cc(Cl)ccc2CCC1n1ccc2c[n+](CC3CCCC3)ccc21` (stereo not shown) [AB27316] are 167 nM, 1130 nM, 1170 nM and 5.89 µM.
The corresponding values for `Cc1cn(C2CCc3ccc(Cl)cc3C2=O)c2cc[n+](Cc3ccccc3)cc12` (stereo not shown) [AB27188] are 14 nM, 214 nM, 40 nM and 0.23 µM.
Regarding `Cc1ccc2c(c1)CCC(n1ncc3c[n+](Cc4ccccc4)ccc31)C2=O` (stereo not shown) [AB31777], the IC50 in the assay with Con-NCI-H82 cell stood at 128 nM; with ov-NNMT NCI-H82 cell, 1990 nM; in the assay with mPTP-inactive Daoy cell it was 1230 nM; with mPTP-active Daoy cell it was 6.99 µM.
The corresponding values for `O=C(C[n+]1ccc2c(c1)CCC(c1ccccc1)N2)c1ccc(OC(F)(F)F)cc1` (stereo not shown) [AB27103] are 1480 nM, 11000 nM, 4090 nM and 8.98 µM.
The corresponding values for `Cc1cn(CC(=O)c2cccc(C(F)(F)F)c2)c2cc[n+](Cc3ccccc3)cc12` [AB27458] are 748 nM, 7720 nM, 3010 nM and 10.3 µM.
Take `O=C1c2cc(Cl)ccc2CCC1n1ccc2c[n+](Cc3ccccc3)ccc21` (stereo not shown) [AB27187]: the IC50 in the assay with Con-NCI-H82 cell turned out to be 14 nM; with ov-NNMT NCI-H82 cell, 252 nM; in the assay with mPTP-inactive Daoy cell it was 50 nM; in the assay with mPTP-active Daoy cell, 0.21 µM.
For `CC(c1ccccc1)n1cc2cc[n+](C3CCc4ccc(Cl)cc4C3=O)cc2c1` (stereo not shown) [AB27481], the IC50 with Con-NCI-H82 cell came to 228 nM; with ov-NNMT NCI-H82 cell, 2730 nM; with mPTP-inactive Daoy cell, 650 nM; with mPTP-active Daoy cell, 2.72 µM.
As for `Cc1cc2c[n+](Cc3ccccc3)ccc2n1CC(=O)c1cccc(OC(F)(F)F)c1` [AB27455], the IC50 in the assay on Con-NCI-H82 cell worked out at 22 nM; with ov-NNMT NCI-H82 cell, 265 nM; in the assay on mPTP-inactive Daoy cell, 110 nM; in the assay on mPTP-active Daoy cell, 0.36 µM.
The corresponding values for `Cc1ccc(C(=O)Cn2ccc3c[n+](Cc4ccccc4)cc(C)c32)cc1` [AB27256] are 22 nM, 253 nM, 120 nM and 0.33 µM.
The corresponding values for `O=C1c2cc(F)ccc2CCC1[n+]1cnc2c(ccn2Cc2ccccc2)c1` (stereo not shown) [AB27355] are 121 nM, 1020 nM, 1170 nM and 5.92 µM.
The corresponding values for `Cc1c2ccn(Cc3ccccc3)c2cc[n+]1C1CCc2ccc(Cl)cc2C1=O` (stereo not shown) [AB27219] are 85 nM, 1320 nM, 2120 nM and 5.09 µM.
Consider `O=C1c2cc(Cl)ccc2CCC1[n+]1ccc2c(c1)c(F)cn2Cc1ccccc1` (stereo not shown) [AB27173], for which the IC50 stood at 135 nM in the assay on Con-NCI-H82 cell, 2030 nM with ov-NNMT NCI-H82 cell, 1020 nM in the assay on mPTP-inactive Daoy cell and 3.43 µM with mPTP-active Daoy cell.
The corresponding values for `Cc1ccc(C(=O)C[n+]2ccc(N3CCc4ccccc43)cc2C)cc1` [AB27306] are 737 nM, 5460 nM, 3230 nM and 9.91 µM.
The corresponding values for `Nc1cc[n+](CC(=O)c2ccccc2)cc1` [AB36527] are 39700 nM, 36500 nM, 40900 nM and 39.1 µM.
The corresponding values for `O=C1c2ccc(OC(F)(F)F)cc2CCC1[n+]1ccc2c(c1)CC(c1ccccc1)N2` (stereo not shown) [AB27101] are 750 nM, 2310 nM, 1930 nM and 5.68 µM.
